In US20140066363A1, “CARBOHYDRATE NANOPARTICLES FOR PROLONGED EFFICACY OF ANTIMICROBIAL PEPTIDE” (priority 2011, published 2014):

Columns and labels:
Assay type in all cases: cell-based, Listeria monocytogenes
L. monocytogenes [1] = test: BHI-agar deep-well model of nisin depletion (21 days, 4° C.) with bioassay, PG derivatives
Protocol: Nisin activity, either for those freshly prepared or stored in BHI agar deep-well, was determined as described by Pongtharangkul and Demirci (2004) with modifications. Agar diffusion bioassay was used to determine the nisin activity against L. monocytogenes. BHI (3.7%) solution containing 0.75% agar and 1.0% Tween 20 was prepared and autoclaved. After cooling to approximately 40° C., the solution was inoculated by a 1.0% volume of BHI broth containing L. monocytogenes V7 (ca. 108 colony-forming units/mL). To each square Petri-dish plate (10×10 cm), a 32 mL inoculated BHI agar solution was added and allowed to solidify. Thereafter, holes with 7.0 mm diameter were made using a cork borer, and 100 μL of each nisin preparation was added to each agar well. The Petri-dish plates were then incubated for 24 h at room temperature, and the size of inhibitory ring was measured to indicate the activity against L. monocytogenes.
In this study, a BHI-agar deep-well model was established to mimic the depletion of nisin at nutrient-containing surfaces, such as a food surface (FIG. 1). BHI is a nutritious culture medium that supplies protein and other nutrients necessary to support the growth of fastidious and nonfastidious microorganisms. It contains infusions from calf brains and beef hearts, proteose and peptone, dextrose, sodium chloride, and disodium phosphate. […] Therefore, BHI is an ideal nutrient model for studying nisin depletion and retention. Our experiments have consistently shown that BHI-containing broths and gels lead to rapid depletion of peptide activity. In a deep well filled with a liquid peptide preparation, peptide molecules diffuse from the solution into the gel (causing diffusion-based depletion), and BHI components diffuse from the agar gel into the solution (causing irreversible peptide adsorption or degradation).
For continuous sampling at various stages of storage, nisin preparations were added to the deep wells of the BHI-agar gel. For the deep-well storage, the inner surface of a well was used to mimic the outer surface of solid food. […]

L. monocytogenes V7 = test: BHI-agar deep-well model of nisin depletion (50 days, 4° C.) with bioassay, emulsions
Protocol: To prepare emulsions, PG-OS and WCS-OS were each dissolved in sodium acetate buffer (50 mM, pH 5.5, 22° C.) to form a solution of 10 mg/mL. As a reference, 1.0 mg/mL of Tween 20 solution was also prepared using the sodium acetate buffer. Vegetable oil was added to each emulsifier solution, at twice (for PG-OS and WCS-OS) or 20 times (Tween 20) the weight of the emulsifier. […] Each mixture was further diluted with the same volume of sodium acetate buffer. […] These emulsions were sterilized using a boiling-water bath for 3 min before further tests. Nisin activity, either for those freshly prepared or stored in BHI agar deep-well, was determined as described by Pongtharangkul and […] (2004) with modifications. Agar diffusion bioassay was used to determine the nisin activity against L. monocytogenes. […] After cooling to approximately 40° C., the solution was inoculated by a 1.0% volume of BHI broth containing L. monocytogenes V7 (ca. 108 colony-forming units/mL). To each square Petri-dish plate (10×10 cm), a 32 mL inoculated BHI agar solution was added and allowed to solidify. […] The Petri-dish plates were then incubated for 24 h at room temperature, and the size of inhibitory ring was measured to indicate the activity against L. monocytogenes. […] The hot solution (225 mL) was poured into a 600-mL beaker to a height of 40 mm. After gel solidification, four wells (from gel surface to bottom) were made in each beaker using a 7.0-mm borer.

L. monocytogenes [2] = test: Control storage of emulsions in regular test tubes at 4° C. with bioassay; conditions: 150 μg/mL nisin
Protocol: The label “free nisin” denotes the preparation containing nisin only in buffer. The total initial concentration of nisin was 150 μg/mL for each preparation. One portion of each preparation was applied to the model system (labeled “Model”), and another portion was stored in a regular test tube as the control (labeled “Control”). Both model and control groups were aliquoted after various storage periods for the activity tests.
Nisin activity, either for those freshly prepared or stored in BHI agar deep-well, was determined as described by Pongtharangkul and Demirci (2004) with modifications. Agar diffusion bioassay was used to determine the nisin activity against L. monocytogenes. BHI (3.7%) solution containing 0.75% agar and 1.0% Tween 20 was prepared and autoclaved. After cooling to approximately 40° C., the solution was inoculated by a 1.0% volume of BHI broth containing L. monocytogenes V7 (ca. 108 colony-forming units/mL). To each square Petri-dish plate (10×10 cm), a 32 mL inoculated BHI agar solution was added and allowed to solidify. Thereafter, holes with 7.0 mm diameter were made using a cork borer, and 100 μL of each nisin preparation was added to each agar well. The Petri-dish plates were then incubated for 24 h at room temperature, and the size of inhibitory ring was measured to indicate the activity against L. monocytogenes. […]

[3] = initial nisin 150 μg/mL, calculated from ring size by standard curve

nisin [free nisin]
retained activity at day 5 (L. monocytogenes [1]; deep wells in BHI-agar gel, summary): negligible | residual nisin activity after 7 days (L. monocytogenes [1]; deep-well model, 4° C., 100 μg/mL nisin): negligible | nisin activity at 0 day (L. monocytogenes [1]; deep-well model, initial test, 100 μg/mL nisin): highest nisin activity | size of inhibitory ring after 40 days, model groups (L. monocytogenes V7; deep-well model, 4° C., 150 μg/mL nisin): undetectable | available nisin after 5 days (L. monocytogenes V7; [3]): 10.2 µg/mL | available nisin after 20 days (L. monocytogenes V7; [3]): < 1 µg/mL | available nisin after 40 days (L. monocytogenes V7; [3]): negligible | change of inhibitory ring size during storage, control groups (L. monocytogenes [2]): did not show an appreciable change
